From patent US12528840B2, “Transcription active complex targeting cancer drug from viral protein sequence” (The Regents of the University of California, priority 2020, dated 2026)

Assays:
Type in all cases: cell-based
[1] = system: MYC target genes; experiment: Total RNA sequencing with Gene Set Enrichment Analyses; details: total RNA-sequence 24 hours post-drug treatment, PEL cells
Method: FIGS. 1A-H. Viral protein sequence based cancer drug. (FIG. 1A) Discovery of hijacking transcription machinery in KSHV reactivating cells (Chen et al., J. Virol 2017). […] (FIG. 1B) Reporter assay. KSHV ORF50 overexpression inhibits MYC activation. (FIG. 1C) Chromatin immunoprecipitation with Mass Spectrometry. Proteins inducibly interact with both ORF50 and RNA polII are shown. […] (FIG. 1E) Mapping of interacting domain. GST-pull down was performed to identify NCoA2 binding domains. Purified NCoA2 was made from recombinant baculovirus infected cells and KSHV ORF50 deletion proteins were made in E. coli. Peptides are then generated as TAT-fusion for cell penetration. (FIG. 1F) ChIP-seq and RNA-seq. ChIP-seq was performed to identify NCOA2 target genes in primary effusion lymphoma cells. NCoA2 localization is highly associated with active genes and localizes with RNA pol II at enhancer regions. […] The qRT-PCR was performed with specific primers. (FIG. 1H) Gene set enrichment analyses (GSEA). […] Forty-eight hours later, live cells were measured by applying MTS. […]
Thiol(SH)-linked alkylation for the metabolic sequencing of RNA (SLAM seq), an orthogonal-chemistry-based RNA sequencing technology detects 4-thiouridine (s4U) incorporation in RNA species at single-nucleotide resolution. […] IGV viewer was used to visualize sequence reads at MYC region (Chr. 8). […]

[2] = system: CD14+ monocytes; experiment: CD14+ monocyte live/dead staining; details: 16 or 32 μM, 2 days; PBS, LPS, polyIC conditions; vs control peptide or PBS
Method: FIG. 13. Effect of MBK50 on CD14+ monocytes. FIG. 13(a) A scheme of the experimental procedure. CD14+ monocytes were prepared with magnetic beads from the PBMC of healthy donors. Cells were washed and cultured at 1×10^6/ml in a 96 well plate (200 μl/well in triplicates) without or with LPS (100 ng/ml) or poly I:C (10 μg/ml) in the presence of MBK (16 or 32 μM) or mutant peptide (32 μM) for 2 days. Live cells were determined using live/dead staining followed by flow cytometry analysis. FIG. 13(b) A representative flow profile with the gating strategy for live cells is shown. FIG. 13(c) Averages percentage of live cells for each culture condition are shown. **p<0.01, ***p<0.001, ****p<0.0001
Monocytic cells are important antigen-presenting cells bridging innate and antigen-specific immune responses. To evaluate the effect of MBK on monocytic cells, CD14+ monocytes were prepared with magnetic beads from the PBMC of healthy donors. Cells were washed and cultured at 1×10^6/ml in a 96 well plate (200 μl/well in triplicates) without or with LPS (100 ng/ml) or poly I:C (10 μg/ml) in the presence of MBK (16 or 32 μM) or mutant peptide (32 μM) for 2 days. Live cells were determined using live/dead staining, followed by flow cytometry analysis.

[3] = system: MYC; experiment: Intracellular staining of MYC in LPS-activated THP-1 cells; details: THP-1, LPS 100 ng/ml, 16 μM, 24 hours
Source text: FIG. 16. Effect of MBK50 on MYC and IRF4 expression in LPS-activated monocytic leukemia cell line THP-1 cells. […] MYC and IRF4 expression levels were examined by intracellular staining of MYC and IRF4 with isotype control staining followed by flow cytometry. FIG. 16(a) A scheme of the experimental procedure. FIG. 16(b) A representative histogram overlay for the MYC expression in THP-1 cells treated with MBK50, mutant control peptide or PBS, with isotype control. The average mean fluorescent intensity (MFI) for MYC expression (n=3) for each treatment is shown in the right panel. FIG. 16(c) A representative histogram overlay for the IRF4 expression (red) in THP-1 cells treated with MBK50, mutant control peptide, or PBS, with isotype control (blue). The average MFI for IRF4 expression for each treatment is shown in the right panel.
MYC is important for monocytic cell proliferation, especially upon LPS stimulation. […] MYC and IRF4 expression levels were examined by intracellular staining of MYC and IRF4 with isotype control staining followed by flow cytometry (FIG. 16a). […] Also, the percentage of THP-1 cells with reduced IRF4 expression was increased by MBK50 treatment compared to mutant control peptide or PBS treatment.

LSSILQGLYQLDT [MBK50]
GSEA of MYC target genes [1]: highest enrichment scores with zero false discovery rate | GSEA of MYC target genes ([1]; listed as Wt-peptide): enrichment of MYC-target gene down-regulation | percentage of live cells [2]: significantly reduced | MYC expression (MFI) [3]: significantly reduced
